pIC50: −log10 of the molar value. In brackets after ≈: the same amount, converted by molar mass.
How the values were obtained:
Assay type in all cases: functional
[1] = Antioxidant activity assessed as DPPH radical scavenging activity; conditions: for pIC50: read-out: IC50
[2] = Antioxidant activity assessed as trolox equivalent of DPPH radical scavenging activity
[3] = Antioxidant activity assessed as DPPH radical scavenging activity by measuring inhibition rate at 60 ug/ml incubated for 50 mins in dark by UV-Vis spectrophotometric analysis relative to control; conditions: dose 60.0 µg/ml
[4] = Antioxidant activity assessed as ABTS-radical scavenging activity measured upto 6 mins
[5] = Antioxidant activity assessed as trolox equivalent of ABTS-radical scavenging activity
[6] = Antioxidant activity assessed as DPPH radical scavenging activity incubated for 30 mins under dark condition
[7] = Antioxidant activity assessed as DPPH radical scavenging activity by measuring inhibition rate relative to control; design: concentration or dose not given beside the values; conditions: dose or concentration not given here
[8] = Antioxidant activity by ORAC-FL method; design: reference not given here
[9] = Antioxidant activity assessed as BHT equivalent of DPPH radical scavenging activity
[10] = Antioxidant activity assessed as DPPH radical scavenging activity at 0.25 mg/ml incubated for 30 mins relative to control
[11] = Antioxidant activity assessed as DPPH radical scavenging activity at 1 mg/ml incubated for 30 mins relative to control

O=C(O)/C=C/c1ccc(O)c(O)c1 [CAFFEIC ACID]
IC50 [1]: 0.8 mg/L

O=C(N/N=C/c1ccc(O)cc1O)c1cc2ccccc2[nH]1
Activity [2]: 2000 µmol/g

COc1cc(-c2nc3ccc(N4CCN(C)CC4)cc3[nH]2)ccc1O
inhibition [3]: 63.6%

O=C(/C=C/c1ccc(/C=C/C(=O)c2ccc3c(c2)OCO3)cc1)c1ccc2c(c1)OCO2
Activity [4]: 220 µg/mL

Cc1cc(N2CCN(c3cccc(C4CC(=O)c5ccccc5O4)c3)CC2)nc(-c2ccccc2O)n1 (configuration not stated)
Activity [5]: 369 µmol/g

COC(=O)c1c2c(c3ccccc3c1O)OC(C)(C)C=C2 [MOLLUGIN]
IC50 [1]: 0.7 mg/L

O=C(/C=C/c1ccc(O)c(O)c1)O[C@@H]1C[C@](O)(C(=O)O)C[C@@H](O)[C@H]1O [CHLOROGENIC ACID]
EC50 [1]: 13.8 mg/L (≈ 38.9 µM)

CCn1c(-n2cc(/C=N/N=c3/scc(-c4ccc(Br)cc4)n3-c3ccccc3)c(-c3ccc(OC)cc3)n2)nc2c1c(=O)n(C)c(=O)n2C
IC50 [6]: 4.89 mg/L (≈ 6.64 µM)

CSc1nc2nc(NNC(=S)NC3CCCCC3)c3ccccc3n2n1
inhibition [7]: 91.2%

O=C(c1cc(O)c(O)c(O)c1)c1cc(O)c(Br)cc1O
IC50 [1]: 14.43 mg/L

C=CCNC(=S)NNc1nc2nc(SC)nn2c2ccccc12
inhibition [7]: 91%

CC1(C)C=Cc2c(C(=O)O)c(O)c3ccccc3c2O1
IC50 [1]: 42.5 mg/L

COc1cc(-c2nc3ccc(N4CCOCC4)cc3[nH]2)ccc1O
inhibition [3]: 76.1%

COc1cccc(/C=N/NC(=O)c2cc3ccccc3[nH]2)c1O
Activity [2]: 38.7 µmol/g

O=C(N/N=C/c1cc(Br)ccc1O)c1cc2ccccc2[nH]1
Activity [2]: 14.2 µmol/g

CN1CCN(c2ccc3nc(-c4ccc(O)c(O)c4)[nH]c3c2)CC1
inhibition [3]: 76.8%

COC(=O)c1c(O)c2ccccc2c2occc12 [FUROMOLLUGIN]
IC50 [1]: 100 mg/L

Oc1ccc(Cc2cc(O)c(Br)cc2O)cc1
IC50 [1]: 13.86 mg/L

COc1ccccc1[C@H]1NC(C(=O)O)CS1 (some centres not stated)
pIC50 [1]: 5.82

O=C(O)C1CS[C@@H](c2cccc(Cl)c2)N1 (some centres not stated)
pIC50 [1]: 5.82

Cc1ccc([C@H]2NC(C(=O)O)CS2)cc1 (some centres not stated)
pIC50 [1]: 5.91

O=C(c1ccccc1)c1ccc(O)cc1Br
IC50 [1]: 19.24 mg/L

Oc1ccc(-c2nc3ccc(N4CCOCC4)cc3[nH]2)cc1O
inhibition [3]: 77%

O=c1c2cccc(C(F)(F)F)c2[se]n1-c1ccc2cccc(O)c2n1
Activity [8]: 0.3 µmol

O=C(N/N=C/c1ccccc1O)c1cc2ccccc2[nH]1
Activity [2]: 8.71 µmol/g

O=C(/C=C/c1ccc(O)c(O)c1)O[C@@H]1C[C@@](O)(C(=O)O)C[C@@H](O)[C@@H]1O
EC50 [1]: 13.4 mg/L (≈ 37.8 µM)

CNc1cc(/C=C/c2cc(/C=C/c3ccc(OCC(N)=O)c(OC)c3)[nH]n2)ccc1OCC(N)=O
IC50 [1]: 20 mg/L

CCn1c(-n2cc(/C=N/N=c3\[nH]c(-c4ccc(Br)cc4)cs3)c(-c3ccc(Cl)cc3)n2)nc2c1c(=O)n(C)c(=O)n2C
IC50 [6]: 5.71 mg/L (≈ 8.59 µM)

O=C(CCc1ccc(O)cc1)c1c(O)cc(O)cc1O
Activity [9]: 1.27 mg

CSc1nc2nc(N/N=C(\C)c3ccc([N+](=O)[O-])cc3)c3ccccc3n2n1
inhibition [7]: 78%

COc1cc2c(Nc3ccc(O)cc3)c([N+](=O)[O-])cnc2cc1OCCCN1CCC(C)CC1
Activity [10]: 36%
Activity [11]: 84%

CCn1c(-n2cc(/C=N/NC(N)=S)c(-c3ccc(Cl)cc3)n2)nc2c1c(=O)n(C)c(=O)n2C
IC50 [6]: 10.24 mg/L (≈ 21.1 µM)

O=c1c2c(C(F)(F)F)cccc2[se]n1-c1ccc2cccc(O)c2n1
Activity [8]: 0.2 µmol

Oc1cc(Cc2ccccc2)c(O)cc1Br
IC50 [1]: 13.32 mg/L

O=C(/C=C/c1ccc(/C=C/C(=O)c2ccc(Oc3ccccc3)cc2)cc1)c1ccc(Oc2ccccc2)cc1
Activity [4]: 174 µg/mL

O=c1c2cccc(F)c2[se]n1-c1ccc2cccc(O)c2n1
Activity [8]: 3.6 µmol

O=C(O)CN1C(=O)S/C(=C\c2cn(-c3ccccc3)nc2-c2ccccc2)C1=O
IC50 [1]: 128.55 mg/L

C[C@H]1O[C@H](O[C@H]2[C@H](O)[C@@H](O)[C@@H](O[C@H]3[C@H](O)[C@@H](O)C(O)O[C@@H]3CO)O[C@@H]2CO)[C@H](O)[C@@H](O)[C@@H]1N[C@H]1C=C(CO)[C@@H](O)[C@H](O)[C@H]1O (some centres not stated) [ACARBOSE]
IC50 [1]: 81.12 mg/L

O=C(O)C1CS[C@@H](c2ccccc2)N1 (some centres not stated)
pIC50 [1]: 5.81

O=C(N/N=C/c1c(O)cc(O)cc1O)c1cc2ccccc2[nH]1
Activity [2]: 4190 µmol/g

COc1ccc2c(=O)cc(-c3ccc(N4CCN(c5nc6ccccc6s5)CC4)cc3)oc2c1
Activity [5]: 317 µmol/g

O=c1c2c(F)cccc2[se]n1-c1ccc2cccc(O)c2n1
Activity [8]: 2.3 µmol

O=C(CCc1ccc(O)cc1)c1c(O)cc(O[C@@H]2O[C@H](CO)[C@@H](O)[C@H](O)[C@H]2O)cc1O
Activity [9]: 0.89 mg

O=C1S/C(=C\c2cn(-c3ccccc3)nc2-c2ccc(O)cc2)C(=O)N1Cc1ccccc1
IC50 [1]: 110.88 mg/L

O=C(N/N=C/c1cc(O)ccc1O)c1cc2ccccc2[nH]1
Activity [2]: 9960 µmol/g

CSc1nc2nc(NN)c3ccccc3n2n1
inhibition [7]: 85.9%

CSc1nc2nc(N/N=C/c3cccnc3)c3ccccc3n2n1
inhibition [7]: 65%

O=C(O)C1CS[C@@H](c2cccc(F)c2F)N1 (some centres not stated)
pIC50 [1]: 6.08

O=C(O)C1CS[C@@H](c2cccc(Cl)c2Cl)N1 (some centres not stated)
pIC50 [1]: 6.03

COc1ccc(-c2nn(-c3ccccc3)cc2/C=C2\SC(=O)N(Cc3ccccc3)C2=O)cc1
IC50 [1]: 127.18 mg/L

O=c1c2cccc(Cl)c2[se]n1-c1ccc2cccc(O)c2n1
Activity [8]: 0.9 µmol

O=C(c1ccc(O)c(O)c1)c1cc(O)c(Br)cc1O
IC50 [1]: 16.44 mg/L

O=C(/C=C/c1ccc(O)c(O)c1)O[C@H](Cc1ccc(O)c(O)c1)C(=O)O [ROSMARINIC ACID]
IC50 [1]: 0.4 mg/L

COc1cc(/C=C/C(=O)CC(=O)/C=C/c2ccc(O)c(OC)c2)ccc1O [CURCUMIN]
IC50 [1]: 28 mg/L

O=C1CC(c2cccc(N3CCN(c4nc5ccccc5s4)CC3)c2)Oc2ccccc21 (configuration not stated)
Activity [5]: 464 µmol/g

O=C(N/N=C/c1ccc(O)c(O)c1O)c1cc2ccccc2[nH]1
Activity [2]: 12800 µmol/g

From ChEMBL document CHEMBL5230099, “Free radical scavengers: An overview on heterocyclic advances and medicinal prospects” (Eur J Med Chem, 2020)
